Experimental data: US12540143B2, “Methods and compositions for targeted protein degradation” (Ranok Therapeutics (Hangzhou) Co. Ltd., priority 2019, dated 2026)

How the values were obtained:
ATAD2B = ATAD2B (Homo sapiens, UniProt Q9ULI0); assay: Bromodomain Binding Assay; settings: 10 μM Compound 074, read-out: Bromodomain Binding % of Control
BAZ2A = BAZ2A (Homo sapiens, UniProt Q9UIF9); assay: Bromodomain Binding Assay; settings: 10 μM Compound 074, read-out: Bromodomain Binding % of Control
BRD2 BD1 = BRD2 BD1 (Homo sapiens, UniProt P25440); assay: Bromodomain Binding Assay; settings: 10 μM Compound 074, read-out: Bromodomain Binding % of Control
BRD2 BD1, sequence (P25440 74-180 limits assumed): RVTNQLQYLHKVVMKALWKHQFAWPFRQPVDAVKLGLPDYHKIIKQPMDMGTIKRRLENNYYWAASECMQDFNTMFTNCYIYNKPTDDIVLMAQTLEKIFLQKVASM

BRD7 = BRD7 (Homo sapiens, UniProt Q9NPI1); assay: Bromodomain Binding Assay; settings: 10 μM Compound 074, read-out: Bromodomain Binding % of Control
BRD7, sequence (Q9NPI1 131-235 limits assumed): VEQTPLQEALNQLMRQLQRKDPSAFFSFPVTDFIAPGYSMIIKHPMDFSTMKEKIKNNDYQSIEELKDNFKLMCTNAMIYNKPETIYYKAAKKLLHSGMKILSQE

PBRM1 BD5 = PBRM1 BD5 (Homo sapiens, UniProt Q86U86); assay: Bromodomain Binding Assay; settings: 10 μM Compound 074, read-out: Bromodomain Binding % of Control
PBRM1 BD5, sequence (Q86U86 653-763 limits assumed): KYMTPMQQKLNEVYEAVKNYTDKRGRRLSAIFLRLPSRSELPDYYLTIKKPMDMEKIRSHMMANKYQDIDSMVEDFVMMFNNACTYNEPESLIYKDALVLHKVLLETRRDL

SMARCA2 = biological target: T1, SMARCA2 (Homo sapiens, UniProt P51531); assay: Bromodomain Binding Assay; settings: 10 μM Compound 074, read-out: Bromodomain Binding % of Control
T1 construct: made in house; host or cells: T7 phage grown in E. coli host derived from BL21
T1 sequence (P51531 1378-1506 limits assumed): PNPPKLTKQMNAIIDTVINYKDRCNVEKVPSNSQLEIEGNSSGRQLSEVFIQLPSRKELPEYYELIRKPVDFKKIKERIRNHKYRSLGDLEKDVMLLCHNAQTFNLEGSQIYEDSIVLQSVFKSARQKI

SMARCA4 = biological target: T2, SMARCA4 (Homo sapiens, UniProt P51532); assay: Bromodomain Binding Assay; settings: 10 μM Compound 074, read-out: Bromodomain Binding % of Control
T2 construct: made in house; host or cells: T7 phage grown in E. coli host derived from BL21
T2 sequence (P51532 1453-1564 limits assumed): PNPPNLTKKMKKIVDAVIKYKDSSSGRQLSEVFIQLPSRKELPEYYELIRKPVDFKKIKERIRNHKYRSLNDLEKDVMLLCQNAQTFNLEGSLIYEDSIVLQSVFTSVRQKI

TRIM133 = biological target: T3, TRIM133 (Homo sapiens, UniProt Q9UPN9); assay: Bromodomain Binding Assay; settings: 10 μM Compound 074, read-out: Bromodomain Binding % of Control
T3 construct: made in house; host or cells: T7 phage grown in E. coli host derived from BL21
T3 sequence (Q9UPN9 957-1080 limits assumed): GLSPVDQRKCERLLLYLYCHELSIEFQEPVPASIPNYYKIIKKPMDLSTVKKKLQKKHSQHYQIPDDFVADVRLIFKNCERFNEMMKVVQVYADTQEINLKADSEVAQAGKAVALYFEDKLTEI

BRWD1 BD2 = biological target: T4, BRWD1 BD2 (Homo sapiens, UniProt Q9NSI6); assay: Bromodomain Binding Assay; settings: 10 μM Compound 074, read-out: Bromodomain Binding % of Control
T4 construct: made in house; host or cells: T7 phage grown in E. coli host derived from BL21
T4 sequence (Q9NSI6 1313-1418 limits assumed): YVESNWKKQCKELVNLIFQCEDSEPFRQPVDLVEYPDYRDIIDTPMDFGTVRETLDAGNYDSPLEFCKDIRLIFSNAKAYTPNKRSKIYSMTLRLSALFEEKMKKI

BRD4 = biological target: T5, BRD4 (Homo sapiens, UniProt O60885); assay: BRD4 western blotting in MV4-11 cells; type: cell-based
T5 construct: endogenous in cells; host or cells: MV4-11
Procedure: Cells were then collected by centrifugation, washed one time with cold PBS, supernatants aspirated and cell pellets lysed with 4° C. RIPA lysis buffer containing a protease/phosphatase inhibitor cocktail. The total protein concentrations of cell lysates were determined by BCA Protein Assay kit. Samples were normalized for equivalent protein concentrations, 5× loading buffer added and heated to 100° C. for 10 min and cooled to room temperature. 20 μl of each sample/well was loaded on a SDS-PAGE gel and electrophoresed for 20 min at 80 V, then 120 V for 1.5 hr. Gels were then electroblotted to nitrocellulose membranes using a wet-transfer method at 250 mA for 2.5 hr. Membranes were incubated with blocking buffer for 1 hr and washed 3 times with TBST for 5 min. Then membranes were incubated with anti-BRD4 (Cell Signaling Technology, #13440) and anti-beta-Actin (Cell Signaling Technology, #3700) antibodies diluted in blocking buffer per the manufacturer's recommendation at 4° C. overnight. After washing 3 times, blots were incubated with the appropriate labeled secondary antibody for 1 hr at room temperature and washed again. Images were read on a LI-COR and the optical density values of bands determined by ImageJ software. Data was analyzed using GraphPad Prism 7.0.

HSP90 client proteins = assay: HSP90 Client Protein Degradation Flow Cytometry Assay (summary over all clients); type: cell-based, human; settings: ERBB2, IGF1R, EGFR and RAF1
Procedure: MV4-11 cells were plated in a 24-well tissue culture plate at a density of 350,000 cells/450 μL/well and incubated in 37° C./5% CO2 for 1 hr. Cells were then treated with compounds at various concentrations and incubated in 37° C./5% CO2 for 24 hr. Cells were harvested, washed once, counted and 200 μL of 1% paraformaldehyde/PBS was added and incubated for 15 min at room temperature. 200 μL of 1×PBS/0.4% Triton X-100 was added and incubated for 15 min at 4° C. Cells were washed three times and resuspended in 50 μL of 1×PBS/0.2% Triton X-100. 2 μL/10^6 cells of anti-BRD4 antibody (ABCAM, #128874) was added and mixed by pipetting up and down. Cells were incubated for 30 min at room temperature in the dark, washed three times and resuspended in 50 μL of 1×PBS/0.2% Triton X-100. Goat anti-rabbit IgG H&L antibody (1:2000 dilution) was added and mixed by pipetting up and down and incubated for 30 min at room temperature in the dark. Finally, cells were washed three times and resuspended in 200 μL of PBS for flow cytometric analysis.
Similar flow cytometry experiments for ERBB2 in BT-474 human breast carcinoma cells (ATCC, #HTB-20) and IGF1R, EGFR and RAF1 in HEK-293 human embryonic kidney (ATCC, #CRL-1573) were performed using anti-ERBB2 (R&D, #FAB1129P), anti-IGF1R (Cell Signaling Technology, #9750), anti-EGFR (Cell Signaling Technology, #139690) and anti-RAF1 (ABCAM, #ab181115) antibodies.

[1] = system: SU-DHL-4 diffuse large B-cell lymphoma xenograft; assay: SU-DHL-4 DLBCL xenograft model in mice
Procedure: 10 μL the cell proliferation reagent CCK-8 (WST-8) was added into each well and incubated at 37° C./5% CO2 for 3-4 hr and the absorbance at 450 nm measured with an En Vision Plate Reader.
5×10^6 MV-4-11 or 1×10^7 SU-DHL-4 cells were collected and re-suspended in 0.1 mL of serum-free media with Matrigel (1:1 v/v) per mouse for subcutaneous inoculation in isoflurane anesthetized male BALB/c nude or C.B-17 scid mice, respectively (treated in accordance with AAALAC animal welfare guidelines). When the average tumor volumes reached 100-200 mm^3, tumor volume outliers were removed and the remaining animals randomly divided into groups of 6-8 with similar average tumor volumes in each group. […] Animals were intravenously dosed at 25 mg/kg, 50 mg/kg or 100 mg/kg 1×/week for 3 or 4 weeks. The appearance and behavior of each mouse was observed and recorded daily. Body weights and tumor volumes were measured and recorded every 2-4 days and the results were expressed as group means±SEM. Pairwise statistical comparisons between groups were performed by one-way ANOVA, and p<0.05 was considered statistically significant.

[2] = Pharmacokinetics and tissue distribution in the MV4-11 xenograft model in mice; type: in vivo; settings: for AUC(0-∞): 5 mg/kg single intravenous dose
Procedure: Pharmacokinetics and Tissue Distribution
15 female CB-17 SCID mice (treated in accordance with AAALAC animal welfare guidelines) were weighed and administered 5 mg/kg of compound 074 by a single intravenous injection. 0.10 mL of blood was collected from each mouse by submandibular vein and sodium heparin was added as an anticoagulant. Samples were collected before compound administration, and at 1 hr, 6 hr 24 hr and 48 hr time points after administration, with 3 mice sampled per time point. After collection, samples were placed on ice and the animals sacrificed to collect tumor and normal tissues. The method development and analysis of all samples were performed by the analytical laboratory at Shanghai Medicilon Inc. Intra-day accuracy evaluation of samples for quality control was carried out during sample analysis and a quality control accuracy of more than 66.7% of samples was required between to be 80-120%. Pharmacokinetic parameters were calculated using Phoenix WinNonlin7.0 software.

[3] = 100 mg/kg intravenous 1×/week, after 4 weeks of dosing

ATAD2B, sequence (Q9ULI0 951-1066 limits assumed): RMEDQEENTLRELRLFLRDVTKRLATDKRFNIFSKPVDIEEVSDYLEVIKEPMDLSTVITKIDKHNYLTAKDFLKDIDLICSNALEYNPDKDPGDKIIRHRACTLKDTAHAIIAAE
BAZ2A, sequence (Q9UIF9 1793-1897 limits assumed): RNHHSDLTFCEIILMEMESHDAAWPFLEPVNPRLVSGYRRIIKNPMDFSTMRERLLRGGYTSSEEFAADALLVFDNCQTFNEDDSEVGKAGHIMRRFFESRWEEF

Work on `Cc1sc2c(c1C)C(c1ccc(Cl)cc1)=N[C@@H](CC(=O)N1CCC(CN3CCN(Cc4ccc(-n5c(O)nnc5-c5cc(C(C)C)c(O)cc5O)cc4)CC3)CC1)c1nnc(C)n1-2.Cl` [Compound 74, (S)-2-(4-(4-chlorophenyl)-2,3,9-trimethyl-6H-thieno[3,2-f][1,2,4]triazolo[4,3-a][1,4]diazepin-6-yl)-1-(4-((4-(4-(3-(2,4-dihydroxy-5-isopropylphenyl)-5-hydroxy-4H-1,2,4-triazol-4-yl)benzyl)piperazin-1-yl)methyl)piperidin-1-yl)ethan-1-one hydrochloride] yielded a remaining activity at 10 µM (ATAD2B) of over 75%, a remaining activity at 10 µM (BAZ2A) of over 75% and a remaining activity at 10 µM (BRD2 BD1) of under 10%. It also gave a remaining activity at 10 µM (BRD7) of over 75%, a remaining activity at 10 µM (PBRM1 BD5) of over 75% and a remaining activity at 10 µM (SMARCA2) of over 75%. The remaining activity at 10 µM (SMARCA4) was over 75%, the remaining activity at 10 µM (TRIM133) was over 75% and the remaining activity at 10 µM (BRWD1 BD2) was over 75%. The “BRD4 degradation by western blotting with proteasome inhibitor bortezomib (FIG. 2)” value (BRD4; MV4-11 cells treated with both compound 074 and bortezomib) was “BRD4 degradation was blocked”, the “BRD4 degradation by western blotting (FIG. 1)” value (BRD4; MV4-11 cells, 24 hr, 100 and 300 nM) was “BRD4 degradation was observed” and the IC50 (HSP90 client proteins) was 339 to 1060 nM. For the same compound, the “tumor growth inhibition (FIG. 4a)” value [1, 3] was “significant tumor growth inhibition”, the “tumor vs control (T/C) value” [1, 3] was 41% and the “animal deaths and body weights (FIG. 4b)” value ([1]; any dose level, SU-DHL-4 xenograft) was “No animal deaths or significant effects on body weights were observed”. The “AUC(0-∞)” value ([2]; Heart) was 8828.71 ng·h/g, the “AUC(0-∞)” value ([2]; Liver) was 24415.49 ng·h/g and the “AUC(0-∞)” value ([2]; Lung) was 14199.86 ng·h/g. For the same compound, the “AUC(0-∞)” value ([2]; Tumor) was 23857.20 ng·h/g and the “half-life in tumors relative to plasma and other organs” value ([2]; times as long as in plasma and other organs) was 4.6-9.5 times.
